What follows are compounds tested against T1, human glucagon receptor (Homo sapiens, UniProt P47871) (assay: Glucagon binding inhibitory activity ([125I]-glucagon binding to glucagon receptor membrane protein)). Conditions: human glucagon receptor membrane protein, [125I]-glucagon, 90 min room temperature.
T1 construct: made in house; host or cells: FreeStyle CHO cells, transient transfection with pMSRαneo/hGCGR; membrane fraction (35,000 rpm pellet)
Outline: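 Receptor source was a membrane fraction of transiently transfected CHO cells bearing human receptor; 90 min room-temperature binding, filtration harvest, scintillation counting.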

T1 sequence (P47871 26-477): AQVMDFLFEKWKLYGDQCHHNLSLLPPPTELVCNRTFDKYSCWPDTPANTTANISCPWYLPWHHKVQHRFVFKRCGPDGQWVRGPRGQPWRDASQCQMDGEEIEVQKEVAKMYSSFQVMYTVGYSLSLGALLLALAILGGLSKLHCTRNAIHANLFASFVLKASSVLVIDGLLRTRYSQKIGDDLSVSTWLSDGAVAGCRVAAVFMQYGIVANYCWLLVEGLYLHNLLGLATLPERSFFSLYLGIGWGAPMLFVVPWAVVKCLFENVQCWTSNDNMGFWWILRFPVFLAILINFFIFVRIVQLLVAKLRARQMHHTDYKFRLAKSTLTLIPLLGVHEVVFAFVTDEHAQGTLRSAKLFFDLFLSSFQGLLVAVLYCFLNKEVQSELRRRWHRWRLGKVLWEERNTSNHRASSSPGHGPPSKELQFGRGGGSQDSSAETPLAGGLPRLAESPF

SMILES	IC50
CN(CCC(=O)O)C(=O)c1ccc(NC(c2nn(C)c3ccccc23)C2CCCCC2)cc1 (centres unmarked) [Example A7, 3-{[(4-{[cyclohexyl(1-methyl-1H-indazol-3-yl)methyl]amino}phenyl)carbonyl](methyl)amino}propanoic acid]	1800 nM
COCc1c(C(Nc2ccc(C(=O)N(C)CCC(=O)O)cc2)C2CCCCC2)oc2ccc(F)cc12 (single isomer, unassigned) [Example A49, 3-[{[4-({cyclohexyl[5-fluoro-3-(methoxymethyl)-1-benzofuran-2-yl]methyl}amino)phenyl]carbonyl}(methyl)amino]propanoic acid]	640 nM

Same assay, conditions: test compound 10 μM; 0.4% DMSO = 0%, non-labeled glucagon 1 μM = 100%

SMILES	inhibitory rate (%) at 10 μM
Cc1c(C(Nc2ccc(C(=O)N(C)CCC(=O)O)cc2)C2CCCCC2)oc2ccc(F)cc12 (centres unmarked) [Example A46, 3-{[(4-{[cyclohexyl(5-fluoro-3-methyl-1-benzofuran-2-yl)methyl]amino}phenyl)carbonyl](methyl)amino}propanoic acid]	78%
COc1ccc2oc(C(Nc3ccc(C(=O)N(C)CCC(=O)O)cc3)C3CCCCC3)c(C)c2c1 (centres unmarked) [Example A43, 3-{[(4-{[cyclohexyl(5-methoxy-3-methyl-1-benzofuran-2-yl)methyl]amino}phenyl)carbonyl](methyl)amino}propanoic acid]	80%

Same assay, conditions: test compound 10 μM; 0.4% DMSO = 0%, non-labeled glucagon 1 μM = 100%; read-out: inhibitory rate (%) at 10 μM

SMILES	inhibition at 10 µM
CN(CCC(=O)O)C(=O)c1ccc(NC(c2nn(-c3ccccc3)c3ccccc23)C2CCCCC2)cc1 (centres unmarked) [Example A15, 3-{[(4-{[cyclohexyl(1-phenyl-1H-indazol-3-yl)methyl]amino}phenyl)carbonyl](methyl)amino}propanoic acid]	72%
Cc1c(C(Nc2ccc(C(=O)N(C)CCC(=O)O)cn2)C(C)C)oc2ccc(OCC3CC3)cc12 (centres unmarked) [Example A211, 3-[{[6-({1-[5-(cyclopropylmethoxy)-3-methyl-1-benzofuran-2-yl]-2-methylpropyl}amino)pyridin-3-yl]carbonyl}(methyl)amino]propanoic acid]	70%
Cc1c(C(Nc2ccc(C(=O)N(C)CCC(=O)O)cc2)C2CCCCC2)oc2ccc(F)cc12 (centres unmarked) [Example A37, 3-{[(4-{[cyclohexyl(5-fluoro-3-methyl-1-benzofuran-2-yl)methyl]amino}phenyl)carbonyl](methyl)amino}propanoic acid]	78%
COCc1nn(-c2cc(C(F)(F)F)ccn2)cc1C(Nc1ccc(C(=O)N(C)CCC(=O)O)cc1)C1CCCCC1 (centres unmarked) [Example 89, 3-[({4-[(cyclohexyl{3-(methoxymethyl)-1-[4-(trifluoromethyl)pyridin-2-yl]-1H-pyrazol-4-yl}methyl)amino]phenyl}carbonyl)(methyl)amino]propanoic acid]	62%
Cc1c(C(Nc2ccc(C(=O)N(C)CCC(=O)O)cc2)C(C)C)oc2ccc(OC3CCSCC3)cc12 (centres unmarked) [Example A204, 3-(methyl{[4-({2-methyl-1-[3-methyl-5-(tetrahydro-2H-thiopyran-4-yloxy)-1-benzofuran-2-yl]propyl}amino)phenyl]carbonyl}amino)propanoic acid]	86%
CCC(CC)C(Nc1ccc(C(=O)NCCC(=O)O)cc1)c1oc2ccc(F)cc2c1C (centres unmarked) [Example A191, 3-{[(4-{[2-ethyl-1-(5-fluoro-3-methyl-1-benzofuran-2-yl)butyl]amino}phenyl)carbonyl]amino}propanoic acid]	82%
Cc1nn(-c2ccc(C(F)(F)F)cn2)cc1C(Nc1ccc(C(=O)N(C)CCC(=O)O)cc1)C1CCCCC1 (centres unmarked) [Example 2, 3-[({4-[(cyclohexyl{3-methyl-1-[5-(trifluoromethyl)pyridin-2-yl]-1H-pyrazol-4-yl}methyl)amino]phenyl}carbonyl)(methyl)amino]propanoic acid]	72%
O=C(O)CCNC(=O)c1ccc(NC(c2cn(-c3ccc(C(F)(F)F)cn3)nc2C2CC2)C2CCCCC2)cc1 (centres unmarked) [Example 9, 3-[({4-[(cyclohexyl{3-cyclopropyl-1-[5-(trifluoromethyl)pyridin-2-yl]-1H-pyrazol-4-yl}methyl)amino]phenyl}carbonyl)amino]propanoic acid]	74%
CN(CCC(=O)O)C(=O)c1ccc(NC(c2nn(C)c3ccccc23)C2CCCCC2)cc1 (centres unmarked) [Example A7, 3-{[(4-{[cyclohexyl(1-methyl-1H-indazol-3-yl)methyl]amino}phenyl)carbonyl](methyl)amino}propanoic acid]	60%
CCn1nc(-c2ccc(OC(F)(F)F)cc2)cc1C(Nc1ccc(C(=O)N(C)CCC(=O)O)cc1)C1CCCCC1 (centres unmarked) [Example 58, 3-[({4-[(cyclohexyl{1-ethyl-3-[4-(trifluoromethoxy)phenyl]-1H-pyrazol-5-yl}methyl)amino]phenyl}carbonyl)(methyl)amino]propanoic acid]	69%
COc1ccccc1-n1cc(C(Nc2ccc(C(=O)N(C)CCC(=O)O)cc2)C2CCCCC2)c(C)n1 (centres unmarked) [Example 72, 3-[{[4-({[1-(2-methoxyphenyl)-3-methyl-1H-pyrazol-4-yl](cyclohexyl)methyl}amino)phenyl]carbonyl}(methyl)amino]-propanoic acid]	51%
Cc1c(C(Nc2ccc(C(=O)N(C)CCC(=O)O)cc2)C2CCCC2)oc2ccc(F)cc12 (centres unmarked) [Example A68, 3-{[(4-{[cyclopentyl(5-fluoro-3-methyl-1-benzofuran-2-yl)methyl]amino}phenyl)carbonyl](methyl)amino}propanoic acid]	82%
Cc1c(C(Nc2ccc(C(=O)NCCC(=O)O)cc2)C2CCCCC2)oc2ccc(Cl)cc12 (centres unmarked) [Example A88, 3-{[(4-{[(5-chloro-3-methyl-1-benzofuran-2-yl)(cyclohexyl)methyl]amino}phenyl)carbonyl]amino}propanoic acid]	75%
COCc1nn(-c2ccc(OC)cc2)cc1C(Nc1ccc(C(=O)NCCC(=O)O)cc1)C1CCCCC1 (centres unmarked) [Example 35, 3-({[4-({cyclohexyl[3-(methoxymethyl)-1-(4-methoxyphenyl)-1H-pyrazol-4-yl]methyl}amino)phenyl]carbonyl}amino)propanoic acid]	75%
CN(CCC(=O)O)C(=O)c1ccc(NC(c2cn(-c3ccccc3)nc2OCc2ccccc2)C2CCCCC2)cc1 (centres unmarked) [Example 67, 3-[{[4-({[3-(benzyloxy)-1-phenyl-1H-pyrazol-4-yl](cyclohexyl)methyl}amino)phenyl]carbonyl}(methyl)amino]-propanoic acid]	72%
COCc1c(C(Nc2ccc(C(=O)N(C)CCC(=O)O)cc2)C2CCCCC2)oc2ccc(F)cc12 (single isomer, unassigned) [Example A49, 3-[{[4-({cyclohexyl[5-fluoro-3-(methoxymethyl)-1-benzofuran-2-yl]methyl}amino)phenyl]carbonyl}(methyl)amino]propanoic acid]	86%
Cc1c(C(Nc2ccc(C(=O)N(C)CCC(=O)O)cc2)C(C)C)oc2cccc(F)c12 (centres unmarked) [Example A175, 3-{[(4-{[1-(4-fluoro-3-methyl-1-benzofuran-2-yl)-2-methylpropyl]amino}phenyl)carbonyl](methyl)amino}propanoic acid]	68%
Cc1c(C(Nc2ccc(C(=O)N(C)CCC(=O)O)cc2)C2CCCCC2)sc2ncccc12 (centres unmarked) [Example A143, 3-{[(4-{[cyclohexyl(3-methylthieno[2,3-b]pyridin-2-yl)methyl]amino}phenyl)carbonyl](methyl)amino}propanoic acid]	75%
O=C(O)CCNC(=O)c1ccc(NC(c2cc3ccccc3s2)C2CCCCC2)cc1 (centres unmarked) [Example A6, 3-{[(4-{[1-benzothiophen-2-yl(cyclohexyl)methyl]amino}phenyl)carbonyl]amino}propanoic acid]	87%
COc1ncccc1-c1ccc2oc(C(Nc3ccc(C(=O)N(C)CCC(=O)O)cc3)C3CCCCC3)c(C)c2c1 (centres unmarked) [Example A177, 3-[{[4-({cyclohexyl[5-(2-methoxypyridin-3-yl)-3-methyl-1-benzofuran-2-yl]methyl}amino)phenyl]carbonyl}(methyl)amino]propanoic acid]	90%
Cc1c(C(Nc2ccc(C(=O)NCCC(=O)O)cc2)C2CCCCC2)sc2cccnc12 (centres unmarked) [Example A144, 3-{[(4-{[cyclohexyl(3-methylthieno[3,2-b]pyridin-2-yl)methyl]amino}phenyl)carbonyl]amino}propanoic acid]	82%
Cc1c(C(Nc2ccc(C(=O)NCCC(=O)O)cc2)C2CCCCC2)sc2ncccc12 (centres unmarked) [Example A142, 3-{[(4-{[cyclohexyl(3-methylthieno[2,3-b]pyridin-2-yl)methyl]amino}phenyl)carbonyl]amino}propanoic acid]	87%
Cc1c(C(Nc2ccc(C(=O)N(C)CCC(=O)O)cc2)C2CCCCC2)oc2ccc(OC3CCS(=O)(=O)CC3)cc12 (centres unmarked) [Example A199, 3-[({4-[(cyclohexyl{5-[(1,1-dioxidotetrahydro-2H-thiopyran-4-yl)oxy]-3-methyl-1-benzofuran-2-yl}methyl)amino]phenyl}carbonyl)(methyl)amino]propanoic acid]	88%
CCc1c(C(CC(C)C)Nc2ccc(C(=O)N(C)CCC(=O)O)cc2)oc2ccccc12 (centres unmarked) [Example A31, 3-{[(4-{[1-(3-ethyl-1-benzofuran-2-yl)-3-methylbutyl]amino}phenyl)carbonyl](methyl)amino}propanoic acid]	62%
COc1ccc2oc(C(CC(C)C)Nc3ccc(C(=O)N(C)CCC(=O)O)cc3)c(C)c2c1 (centres unmarked) [Example A93, 3-{[(4-{[1-(5-methoxy-3-methyl-1-benzofuran-2-yl)-3-methylbutyl]amino}phenyl)carbonyl](methyl)amino}propanoic acid]	70%
Cc1c(C(Nc2ccc(C(=O)N(C)CCC(=O)O)cc2)C2CCCCC2)oc2ccc(OCC(C)(C)O)cc12 (centres unmarked) [Example A195, 3-[{[4-({cyclohexyl[5-(2-hydroxy-2-methylpropoxy)-3-methyl-1-benzofuran-2-yl]methyl}amino)phenyl]carbonyl}(methyl)amino]propanoic acid]	84%
COCc1nn(-c2ccc(C(F)(F)F)cn2)cc1C(Nc1ccc(C(=O)N(C)CCC(=O)O)cc1)C1CCCCC1 (centres unmarked) [Example 30, 3-[({4-[(cyclohexyl{3-(methoxymethyl)-1-[5-(trifluoromethyl)pyridin-2-yl]-1H-pyrazol-4-yl}methyl)amino]phenyl}carbonyl)(methyl)amino]propanoic acid]	75%
COc1ccc2cc(C(Nc3ccc(C(=O)N(C)CCC(=O)O)cc3)C3CCCCC3)oc2c1 (centres unmarked) [Example A28, 3-{[(4-{[cyclohexyl(6-methoxy-1-benzofuran-2-yl)methyl]amino}phenyl)carbonyl](methyl)amino}propanoic acid]	62%

Source: patent US8436043B2 (Takeda Pharmaceutical Company Limited, priority 2008, dated 2013)
